Data from patent publication US12370256B2, “Activation of resident memory T cells for the treatment of cancer” (Regents of the University of Minnesota, priority 2017, dated 2025).

Tested on: B16 melanoma
Assay type: in vivo, C57B/6 mice

SIINFEKL (Synthetically generated peptide)
tumor growth (tumor size) (peptide alone, 0.5 μg in 30 μl PBS into established palpable tumor, once or twice 2 days apart, no adjuvant): significant inhibition of a rapidly growing tumor
tumor size and survival, peptide combined with PD-L1 blockade (peptide twice intratumorally over 48 h plus three i.v. injections of anti-PDL1): synergizes with PD-L1 blockade
